Data published in ChEMBL document CHEMBL1201862, “PubChem BioAssay data set” (2004).
Activity calls are given as the source filed them.

Columns and labels:
[1] = target: Estrogen receptor beta (Homo sapiens, UniProt Q92731); assay: blockers of SRC-3 recruitment to ERβ – biochemical, ELISA, streptavidin-HRP readout, orthogonal assay, confirmation (AID 1060)
[2] = target: T1, Mannose-6-phosphate isomerase (Homo sapiens, UniProt P34949); assay: MPI inhibition at elevated mannose 6-phosphate – biochemical, fluorescence intensity, high mannose 6-phosphate, primary screen (AID 1220)
T1 sequence (P34949 whole entry): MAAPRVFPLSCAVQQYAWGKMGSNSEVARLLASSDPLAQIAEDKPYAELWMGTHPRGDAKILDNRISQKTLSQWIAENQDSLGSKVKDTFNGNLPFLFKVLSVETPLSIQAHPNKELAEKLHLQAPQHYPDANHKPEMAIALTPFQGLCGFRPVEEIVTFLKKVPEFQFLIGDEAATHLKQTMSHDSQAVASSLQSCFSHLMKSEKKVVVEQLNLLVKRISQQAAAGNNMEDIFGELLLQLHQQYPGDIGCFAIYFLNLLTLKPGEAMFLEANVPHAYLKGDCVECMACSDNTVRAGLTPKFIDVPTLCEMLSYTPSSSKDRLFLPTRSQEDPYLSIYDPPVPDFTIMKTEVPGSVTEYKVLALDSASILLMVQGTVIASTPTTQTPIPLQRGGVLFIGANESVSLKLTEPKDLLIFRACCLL

[3] = target: Intestinal-type alkaline phosphatase (Homo sapiens, UniProt P09923); assay: activation of human intestinal alkaline phosphatase – biochemical, dose response (AID 488873); format: functional
Chain of Intestinal-type alkaline phosphatase (Homo sapiens, UniProt P09923) (P09923 whole entry): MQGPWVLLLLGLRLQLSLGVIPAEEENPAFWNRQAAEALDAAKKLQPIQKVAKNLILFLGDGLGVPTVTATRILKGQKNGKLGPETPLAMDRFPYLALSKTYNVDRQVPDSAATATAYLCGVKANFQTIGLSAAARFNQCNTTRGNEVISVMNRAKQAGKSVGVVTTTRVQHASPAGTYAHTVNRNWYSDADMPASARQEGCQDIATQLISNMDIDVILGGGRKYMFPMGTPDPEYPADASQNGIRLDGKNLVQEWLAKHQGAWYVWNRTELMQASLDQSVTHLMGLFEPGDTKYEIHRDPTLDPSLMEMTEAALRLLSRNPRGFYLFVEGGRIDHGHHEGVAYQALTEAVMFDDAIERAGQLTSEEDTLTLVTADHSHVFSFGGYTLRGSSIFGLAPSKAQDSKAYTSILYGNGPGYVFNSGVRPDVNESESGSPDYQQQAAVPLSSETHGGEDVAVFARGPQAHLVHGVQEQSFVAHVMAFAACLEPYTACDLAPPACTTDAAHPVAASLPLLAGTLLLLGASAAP

[4] = target: Intestinal-type alkaline phosphatase (Mus musculus, UniProt P24822); assay: mouse intestinal alkaline phosphatase activators, dose response, biochemical, luminescence, uHTS hits (AID 488783); format: functional
Chain of Intestinal-type alkaline phosphatase (Mus musculus, UniProt P24822) (P24822 whole entry): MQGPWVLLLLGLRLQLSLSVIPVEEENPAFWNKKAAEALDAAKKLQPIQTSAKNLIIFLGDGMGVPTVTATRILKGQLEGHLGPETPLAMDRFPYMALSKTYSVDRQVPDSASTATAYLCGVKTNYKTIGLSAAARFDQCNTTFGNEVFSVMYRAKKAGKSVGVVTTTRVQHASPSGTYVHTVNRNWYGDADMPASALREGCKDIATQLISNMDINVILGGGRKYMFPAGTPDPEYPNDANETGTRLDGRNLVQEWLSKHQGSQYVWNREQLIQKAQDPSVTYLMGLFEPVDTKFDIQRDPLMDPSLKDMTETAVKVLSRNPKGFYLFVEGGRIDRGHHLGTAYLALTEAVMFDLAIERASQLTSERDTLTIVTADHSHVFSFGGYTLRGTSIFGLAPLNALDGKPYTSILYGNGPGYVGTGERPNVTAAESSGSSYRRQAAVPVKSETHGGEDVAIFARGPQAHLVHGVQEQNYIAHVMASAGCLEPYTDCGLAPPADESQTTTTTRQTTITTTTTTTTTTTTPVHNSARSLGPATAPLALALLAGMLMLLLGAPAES

[5] = target: T2, Alkaline phosphatase, tissue-nonspecific isozyme (Homo sapiens, UniProt P05186); assay: activation of tissue-nonspecific alkaline phosphatase – biochemical, TNAP isozyme, mouse IAP uHTS hits, selectivity assay for mouse IAP activator project, dose response (AID 488880); format: functional
T2 sequence (P05186 whole entry): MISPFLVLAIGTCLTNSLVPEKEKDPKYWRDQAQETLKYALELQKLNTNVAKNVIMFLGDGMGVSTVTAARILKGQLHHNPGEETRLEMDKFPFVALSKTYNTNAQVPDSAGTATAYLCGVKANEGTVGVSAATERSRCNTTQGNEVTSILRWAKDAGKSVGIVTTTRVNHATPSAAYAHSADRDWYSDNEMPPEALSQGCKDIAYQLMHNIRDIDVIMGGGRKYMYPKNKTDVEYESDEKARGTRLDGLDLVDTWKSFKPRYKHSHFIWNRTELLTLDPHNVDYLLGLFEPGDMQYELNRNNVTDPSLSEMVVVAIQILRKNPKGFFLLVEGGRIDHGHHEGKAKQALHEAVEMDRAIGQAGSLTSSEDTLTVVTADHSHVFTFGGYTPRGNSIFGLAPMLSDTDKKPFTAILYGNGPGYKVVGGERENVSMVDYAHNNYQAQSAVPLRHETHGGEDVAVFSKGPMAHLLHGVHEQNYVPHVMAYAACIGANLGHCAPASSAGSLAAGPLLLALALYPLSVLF

[6] = target: T3, RNA-binding protein pos-1 (Caenorhabditis elegans, UniProt G5EF15); assay: disruptors of C. elegans POS-1 RNA interaction – biochemical, fluorescence polarization, dose response (AID 1964);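 further: purified POS-1 fused to maltose binding protein made in E. coli; potency of compounds blocking POS-1 binding to fluorescent RNA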
T3 sequence (G5EF15 whole entry): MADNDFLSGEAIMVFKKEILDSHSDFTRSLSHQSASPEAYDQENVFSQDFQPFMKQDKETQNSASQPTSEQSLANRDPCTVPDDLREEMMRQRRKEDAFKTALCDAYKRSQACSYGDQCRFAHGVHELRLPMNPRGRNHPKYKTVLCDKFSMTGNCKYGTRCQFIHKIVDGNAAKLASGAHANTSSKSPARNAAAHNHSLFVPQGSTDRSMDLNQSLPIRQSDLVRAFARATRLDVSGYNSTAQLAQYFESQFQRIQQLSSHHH

[7] = target: T4, Zinc finger protein mex-5 (Caenorhabditis elegans, UniProt Q9XUB2); assay: potency of MEX-5 RNA-binding blockers – biochemical, C. elegans, fluorescence polarization, dose response (AID 1960)
T4 sequence (Q9XUB2 whole entry): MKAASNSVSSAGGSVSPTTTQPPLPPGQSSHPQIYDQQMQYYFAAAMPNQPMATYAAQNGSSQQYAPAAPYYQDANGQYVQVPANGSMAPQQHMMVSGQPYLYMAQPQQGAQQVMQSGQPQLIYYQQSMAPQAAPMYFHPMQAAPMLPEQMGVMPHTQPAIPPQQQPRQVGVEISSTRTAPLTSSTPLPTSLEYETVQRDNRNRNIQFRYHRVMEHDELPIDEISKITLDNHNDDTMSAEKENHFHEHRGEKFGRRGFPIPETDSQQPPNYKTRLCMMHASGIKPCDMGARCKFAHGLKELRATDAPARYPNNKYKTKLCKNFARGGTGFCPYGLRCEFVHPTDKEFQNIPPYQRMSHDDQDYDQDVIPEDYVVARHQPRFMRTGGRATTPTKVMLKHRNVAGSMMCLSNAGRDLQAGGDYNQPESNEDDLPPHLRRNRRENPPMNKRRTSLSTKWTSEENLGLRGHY

[8] = target: UDP-galactopyranose mutase (Mycobacterium tuberculosis, UniProt P9WIQ1); assay: Inhibitors of Mycobacterium tuberculosis UDP-galactopyranose mutase (UGM) enzyme Measured in Biochemical System Using Plate Reader - 2105-02_Inhibitor_Dose_CherryPick_Activity. [Related pubchem assays (depositor defined):AID504439]
Chain of UDP-galactopyranose mutase (P9WIQ1 whole entry, the tested form may be a part): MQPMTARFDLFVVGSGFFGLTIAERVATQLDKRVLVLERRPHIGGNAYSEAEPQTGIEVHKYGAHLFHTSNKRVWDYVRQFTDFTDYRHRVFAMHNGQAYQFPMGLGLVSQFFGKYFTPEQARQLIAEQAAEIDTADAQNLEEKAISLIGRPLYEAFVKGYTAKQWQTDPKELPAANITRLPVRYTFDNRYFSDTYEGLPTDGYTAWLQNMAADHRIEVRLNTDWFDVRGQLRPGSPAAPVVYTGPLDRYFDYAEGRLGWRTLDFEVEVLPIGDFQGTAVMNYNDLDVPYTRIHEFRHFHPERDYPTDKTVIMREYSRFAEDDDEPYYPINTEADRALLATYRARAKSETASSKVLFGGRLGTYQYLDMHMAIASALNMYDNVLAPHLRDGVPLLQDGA

[9] = target: T5, Runt-related transcription factor 1/Core-binding factor subunit beta (Homo sapiens, UniProt Q01196+Q13951); assay: disruptors of Runt domain/CBFb-SMMHC interaction – biochemical, FRET, Cerulean-Runt, Venus-CBFb-SMMHC, uHTS, […] (AID 1434); format: protein assay
T5 sequence (Q01196 whole entry, the tested form may be a part): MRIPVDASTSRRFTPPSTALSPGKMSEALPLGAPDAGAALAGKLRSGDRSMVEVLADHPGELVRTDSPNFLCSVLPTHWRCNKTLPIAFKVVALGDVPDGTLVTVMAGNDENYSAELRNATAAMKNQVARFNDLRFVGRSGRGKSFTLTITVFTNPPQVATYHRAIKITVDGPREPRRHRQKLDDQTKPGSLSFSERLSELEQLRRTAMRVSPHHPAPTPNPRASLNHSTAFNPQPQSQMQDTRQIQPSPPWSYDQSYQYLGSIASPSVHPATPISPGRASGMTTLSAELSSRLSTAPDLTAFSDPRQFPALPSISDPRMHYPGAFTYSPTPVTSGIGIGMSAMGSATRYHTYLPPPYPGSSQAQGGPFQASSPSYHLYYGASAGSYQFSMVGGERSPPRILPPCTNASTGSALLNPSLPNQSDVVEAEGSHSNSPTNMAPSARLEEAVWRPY
T5 sequence (Q13951 whole entry, the tested form may be a part): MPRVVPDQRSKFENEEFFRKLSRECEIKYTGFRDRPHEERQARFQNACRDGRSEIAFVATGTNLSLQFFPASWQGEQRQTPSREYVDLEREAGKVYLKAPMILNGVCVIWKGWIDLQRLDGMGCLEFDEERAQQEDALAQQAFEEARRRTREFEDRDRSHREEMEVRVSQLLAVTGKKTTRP

[10] = target: T5, Runt-related transcription factor 1/Core-binding factor subunit beta; assay: Runt domain/CBFb-SMMHC interaction disruptors – biochemical, TR-FRET (AID 1438); format: protein assay
[11] = target: Induced myeloid leukemia cell differentiation protein Mcl-1 (Homo sapiens, UniProt Q07820); format: functional
Chain of Induced myeloid leukemia cell differentiation protein Mcl-1 (Q07820 whole entry): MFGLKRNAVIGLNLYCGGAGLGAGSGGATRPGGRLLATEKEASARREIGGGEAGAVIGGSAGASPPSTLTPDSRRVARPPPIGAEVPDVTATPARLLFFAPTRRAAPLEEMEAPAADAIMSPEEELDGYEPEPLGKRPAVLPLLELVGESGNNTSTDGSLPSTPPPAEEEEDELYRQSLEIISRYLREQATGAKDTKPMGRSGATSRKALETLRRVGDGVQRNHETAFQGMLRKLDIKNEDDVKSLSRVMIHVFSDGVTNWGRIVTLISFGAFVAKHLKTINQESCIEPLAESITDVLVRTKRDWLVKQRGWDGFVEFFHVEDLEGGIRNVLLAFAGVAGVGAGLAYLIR

[12] = target: Lysine-specific demethylase 4C (Homo sapiens, UniProt Q9H3R0); assay: inhibition of JMJD2C H3K9me3 demethylation – biochemical, DELFIA europium, cherry-picked samples, dose response (AID 488835); format: functional
Chain of Lysine-specific demethylase 4C (Q9H3R0 whole entry): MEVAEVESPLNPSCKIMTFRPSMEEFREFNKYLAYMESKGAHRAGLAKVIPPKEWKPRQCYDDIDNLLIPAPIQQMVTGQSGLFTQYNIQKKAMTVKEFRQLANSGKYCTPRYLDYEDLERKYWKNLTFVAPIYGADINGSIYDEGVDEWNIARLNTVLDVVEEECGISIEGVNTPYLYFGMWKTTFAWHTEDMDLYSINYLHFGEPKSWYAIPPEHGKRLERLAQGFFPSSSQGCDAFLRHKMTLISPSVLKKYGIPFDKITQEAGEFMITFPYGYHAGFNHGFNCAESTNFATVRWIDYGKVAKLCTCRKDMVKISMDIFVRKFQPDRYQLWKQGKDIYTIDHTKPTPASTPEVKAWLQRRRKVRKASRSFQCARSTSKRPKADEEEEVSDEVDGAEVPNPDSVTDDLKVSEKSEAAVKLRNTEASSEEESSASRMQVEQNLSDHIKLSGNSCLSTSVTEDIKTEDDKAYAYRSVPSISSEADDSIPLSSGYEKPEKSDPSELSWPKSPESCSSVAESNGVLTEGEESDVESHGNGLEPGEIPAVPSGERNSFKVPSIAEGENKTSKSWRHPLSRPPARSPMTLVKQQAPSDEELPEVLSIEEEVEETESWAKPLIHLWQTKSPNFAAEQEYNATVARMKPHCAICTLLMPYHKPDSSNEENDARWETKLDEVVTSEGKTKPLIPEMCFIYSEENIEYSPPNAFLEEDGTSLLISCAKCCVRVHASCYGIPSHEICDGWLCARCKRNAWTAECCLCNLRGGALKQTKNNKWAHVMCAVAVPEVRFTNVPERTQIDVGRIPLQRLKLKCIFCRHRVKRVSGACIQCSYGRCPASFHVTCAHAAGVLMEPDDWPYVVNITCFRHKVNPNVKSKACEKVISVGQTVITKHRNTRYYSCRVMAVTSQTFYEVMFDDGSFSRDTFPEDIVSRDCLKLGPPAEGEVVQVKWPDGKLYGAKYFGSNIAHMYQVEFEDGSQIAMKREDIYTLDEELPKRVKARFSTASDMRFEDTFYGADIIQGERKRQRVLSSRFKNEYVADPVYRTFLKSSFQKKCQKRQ

[13] = target: DNA damage-inducible transcript 3 protein (Mus musculus, UniProt P35639); format: functional, Cricetulus griseus
Chain of DNA damage-inducible transcript 3 protein (P35639 whole entry): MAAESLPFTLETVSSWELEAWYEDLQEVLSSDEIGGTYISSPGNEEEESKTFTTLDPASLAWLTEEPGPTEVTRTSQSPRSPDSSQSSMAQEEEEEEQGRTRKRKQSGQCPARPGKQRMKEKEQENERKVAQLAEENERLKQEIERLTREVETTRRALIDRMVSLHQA

[14] = target: T6, X-box-binding protein 1 (Homo sapiens, UniProt P17861); format: functional, Cricetulus griseus;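 further: confirmatory dose-response counter-screen serving a CHOP assay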
T6 sequence (P17861 whole entry): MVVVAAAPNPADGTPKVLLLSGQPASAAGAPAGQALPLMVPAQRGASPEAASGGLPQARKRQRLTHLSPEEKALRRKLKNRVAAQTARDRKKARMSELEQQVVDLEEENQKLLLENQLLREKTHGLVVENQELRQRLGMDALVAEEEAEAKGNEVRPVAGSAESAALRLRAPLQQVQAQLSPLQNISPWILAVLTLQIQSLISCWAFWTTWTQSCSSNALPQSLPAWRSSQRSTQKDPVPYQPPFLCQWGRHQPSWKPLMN

[15] = luciferase reporter signal suppression in cells – H4 neuroglioma cells, luminescence, dose response (AID 1990); format: functional, cell-based
[16] = Luminescence Cell-Based Dose Response HTS to Identify Inhibitors of 5'UTR Stem-Loop Driven Prion Protein mRNA Translation in H4 Neuroglioblastoma Cells. [Related pubchem assays: 1827 (Project Summary), 1813 (Primary HTS)]; format: functional
[17] = alpha-synuclein stem-loop luciferase translation blockers – H4 neuroglioma cells, luminescence, confirmation (AID 1988); format: functional, cell-based
[18] = target: Exodeoxyribonuclease V (Escherichia coli (strain K12), UniProt P04993+P07648+P08394); assay: RecBCD inhibition via phage-restricted bacterial growth – absorbance, V66 E. coli, mutant T4 phage, counter-screen for AddAB inhibitor project, dose response (AID 492957); format: functional, cell-based, Escherichia coli str. K-12 substr. MG1655
[19] = Counterscreen for AddAB inhibitors: absorbance-based bacterial cell-based high throughput dose response assay for inhibitors of bacterial viability. [Related pubchem assays (depositor defined):AID435030, AID449728, AID449731, AID488942, AID488955, AID488956]; format: functional

Chain of Estrogen receptor beta (Q92731 whole entry): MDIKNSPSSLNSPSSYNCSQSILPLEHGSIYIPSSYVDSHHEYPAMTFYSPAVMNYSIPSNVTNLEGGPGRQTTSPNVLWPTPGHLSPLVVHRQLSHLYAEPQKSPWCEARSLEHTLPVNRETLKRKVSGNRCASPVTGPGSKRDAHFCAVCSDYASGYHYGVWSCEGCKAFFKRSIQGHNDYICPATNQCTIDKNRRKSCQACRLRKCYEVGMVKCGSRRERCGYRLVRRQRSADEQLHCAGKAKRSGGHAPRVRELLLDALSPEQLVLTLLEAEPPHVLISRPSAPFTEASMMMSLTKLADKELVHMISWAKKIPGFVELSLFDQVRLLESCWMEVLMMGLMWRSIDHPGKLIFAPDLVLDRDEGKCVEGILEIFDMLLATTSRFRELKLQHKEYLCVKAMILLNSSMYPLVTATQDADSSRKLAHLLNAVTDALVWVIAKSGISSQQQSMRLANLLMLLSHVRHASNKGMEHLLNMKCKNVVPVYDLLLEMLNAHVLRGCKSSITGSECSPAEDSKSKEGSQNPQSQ

Oc1ccc2cc3c4cc(Br)ccc4nc-3oc2c1O
IC50 [1]: 5.38 µM (not active) | IC50 [2]: 30 µM (active) | EC50 [3]: 21.2 µM (active) | EC50 [4]: 22.1 µM (active) | EC50 [5]: 24 µM (active)

NC(=O)Cn1cc(C=C2C(=O)NC(=O)NC2=O)c2ccccc21
EC50 [6]: > 300 µM (inconclusive) | EC50 [7]: > 300 µM (inconclusive) | AC50 [8]: 82.3 µM (active)

COc1ccc(C(=O)/N=c2\c(C#N)cc3c(=O)n4cccc(C)c4nc3n2Cc2ccco2)cc1
EC50 [6]: 220 µM (active) | IC50 [9]: 8.9 µM (active) | EC50 [7]: > 300 µM (not active) | IC50 [10]: 73.7 µM (inactive) | IC50 [11]: 3.9 µM (active)

COc1ccc(NC(=O)C2CCCCN2N)cc1OCC(C)C (stereo unspecified)
AC50 [12]: 27.6 µM (active)

C=CCO/C(O)=C1\C(C)=NC(SCC(=O)Nc2ccccc2)=C(C#N)C1c1ccco1 (stereo unspecified)
Absolute IC50 (CHOP) [13]: 10 µM | Absolute IC50 (XBP1) [14]: 10 µM

CCCNC(=O)c1ccc2c(O)c(O)c(-c3ccsc3)nc2c1
EC50 [15]: 11.7 µM (active) | EC50 [16]: 10.6 µM (active) | EC50 [17]: 8.96 µM (active) | IC50 [18]: > 118 µM (inactive) | IC50 [19]: > 118 µM (inactive)
